# Reference: BindingDB's records for doi:10.1016/j.ejmech.2013.03.032 (University of Messina, 2013)
# pKi: −log10 of the molar value.
# Target: T1, Proteasome subunit beta type-1 (Homo sapiens, UniProt P20618)
# T1 sequence (P20618 whole entry): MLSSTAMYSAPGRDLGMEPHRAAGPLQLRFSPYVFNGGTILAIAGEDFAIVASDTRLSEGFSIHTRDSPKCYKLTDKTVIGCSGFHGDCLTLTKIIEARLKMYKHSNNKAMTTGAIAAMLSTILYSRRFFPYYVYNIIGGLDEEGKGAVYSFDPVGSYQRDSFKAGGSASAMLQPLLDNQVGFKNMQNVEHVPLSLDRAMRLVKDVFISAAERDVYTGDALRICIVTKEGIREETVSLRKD
# Assay: Inhibition of human 20S proteasome post-glutamyl peptide hydrolyzing activity using Z-Leu-Leu-Glu-AMC as substrate measured over 10 mins by fluorescence assay
row,Compound,pKi
1,CC(C)C[C@H](NC(=O)Cn1ccc(Nc2ccccc2)cc1=O)B(O)O,5.29
2,CC(C)C[C@H](NC(=O)Cn1ccc(N2CCOCC2)cc1=O)B(O)O,6.28
3,CC(C)C[C@H](NC(=O)[C@H](C)n1ccc2ncccc2c1=O)B(O)O,4.87
4,CC(C)C[C@H](NC(=O)Cn1ccc2c(c1=O)CCCN2C)B(O)O,5.41
5,CCN(CC)c1ccn(CC(=O)N[C@@H](CC(C)C)B(O)O)c(=O)c1,5.35
6,CC(C)C[C@H](NC(=O)Cn1ccccc1=O)B(O)O,5.86
7,CC(C)C[C@H](NC(=O)Cn1ccc(N2CCCCC2)cc1=O)B(O)O,5.85
